Among the data in patent US20220298135A1, “5-HETEROARYL-PYRIDIN-2-AMINE COMPOUNDS AS NEUROPEPTIDE FF RECEPTOR ANTAGONISTS” (Domain Therapeutics, priority 2019, published 2022) are melting point and IC50 values, retold here.

Counter-ions that a name gives are not always drawn.

In series [1] the target is T1, human NPFFR1 (hNPFFR1) receptor (Homo sapiens, UniProt Q9GZQ6).
T1 construct: expressed in transfected cells; host or cells: HEK-293 T cells, transient co-transfection with polyethylenimine
Briefly: Human NPFFR1 evaluation using BRET biosensors (antagonist IC50). To be noted: hNPFFR1 transiently over-expressed in HEK-293 T cells; BRET signal; stimulation by EC80 RFRP-3. In kind it is cell-based. Here is the method: Compounds of the present invention were tested successively for their agonist and antagonist activities on human NPFFR1 (hNPFFR1) receptor transiently over-expressed in HEK-293 T cells. Compounds exert agonist activity if, by themselves in absence of neuropeptide RFRP-3 (also named NPVF) they activate hNPFFR1; and they exert antagonist activity if they decrease the action of RFRP-3 on the receptor.
The assay used to measure compound activity is based on BRET (Bioluminescence Resonance Energy Transfer) biosensors and is designed to monitor the plasma membrane translocation of protein that interacts with specific Ga subunit. The specific effector (luciferase tagged: BRET donor) recruited at the membrane will be in close proximity to a plasma membrane anchor (GFP tagged: BRET acceptor) to induce a BRET signal. Biosensors are described in the patent application WO 2016/041093 A1 (Biosensors for monitoring biomolecule localization and trafficking in cells).
HEK-293 T cells are maintained in Dulbecco's Modified Eagle's Medium supplemented with 10% Foetal Calf Serum, 1% Penicillin/Streptomycin at 37° C./5% CO2.
Cells are co-transfected using polyethylenimine (25 kDa linear) with four DNA plasmids encoding: hNPFFR1, GαoB, a Gi family specific intracellular effector fused to luciferase (BRET donor), a plasma membrane effector fused to GFP (BRET acceptor). After transfection, cells are cultured for 48 h at 37° C./5% CO2.
Receptor activity is detected by changes in BRET signal.
On the day of the assay, cells are detached using trypsin 0.05%, resuspended in assay buffer (1.8 mM CaCl2, 1 mM MgCl2, 2.7 mM KCl, 137 mM NaCl, 0.4 mM NaH2PO4, 5.5 mM D-Glucose, 11.9 mM NaHCO3, 25 mM Hepes) and seeded in 384 well plate at a density of 20,000 cells per well. Then, plates are equilibrated 3.5 hours at 37° C. before adding compounds.
Compounds and luciferase substrate are added to the cells using an automated device (Freedom Evo®, Tecan) and BRET readings are collected on EnVision (PerkinElmer) with specific filters (410 nm BW 80 nm, 515 nm BW 30 nm).
Agonist and antagonist activities of compounds are consecutively evaluated on the same cell plate. Agonist activity is first measured after 10 minutes incubation with compound alone on the cells. Then, cells are stimulated by an EC80 RFRP-3 concentration and luminescence is recorded for additional 10 minutes. EC80 RFRP-3 concentration is the concentration giving 80% of the maximal RFRP-3 response. Agonist or antagonist activities are evaluated in comparison to basal signals evoked by assay buffer or EC80 RFRP-3 alone, respectively.
For IC50 determination, a dose-response test is performed using 20 concentrations (ranging over 6 logs) of each compound. Dose-response curves are fitted using the sigmoidal dose-response (variable slope) analysis in GraphPad Prism software (GraphPad Software) and IC50 of antagonist activity is calculated. Dose-response experiments are performed in duplicate, in two independent experiments.
For orientation: BRET reads energy transfer from a luciferase to a nearby fluorophore.

T1 sequence (Q9GZQ6 whole entry): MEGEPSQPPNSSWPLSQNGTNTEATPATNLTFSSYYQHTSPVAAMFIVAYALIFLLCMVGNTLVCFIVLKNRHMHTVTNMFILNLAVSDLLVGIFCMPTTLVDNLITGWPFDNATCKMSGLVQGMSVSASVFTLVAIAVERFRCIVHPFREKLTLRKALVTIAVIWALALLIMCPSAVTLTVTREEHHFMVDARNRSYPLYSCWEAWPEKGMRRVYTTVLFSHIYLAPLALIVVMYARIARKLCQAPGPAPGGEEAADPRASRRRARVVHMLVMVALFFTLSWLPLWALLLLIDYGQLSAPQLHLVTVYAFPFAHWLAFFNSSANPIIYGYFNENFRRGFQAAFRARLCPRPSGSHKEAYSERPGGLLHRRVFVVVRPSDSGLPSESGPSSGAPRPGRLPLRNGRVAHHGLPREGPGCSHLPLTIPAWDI

Regarding `CCc1nc(N)ccc1-c1c(F)ccc2ccc(N(CC)C3CCCCC3)nc12.Cl`, the melting point – broadly, the temperature, or range, at which the solid turns liquid – lay in the range of 160 to 210 °C. The same measure, in the same setting: to `CCc1nc(N)ccc1-c1c(F)ccc2ccc(N(CC)C(C)C)nc12.Cl` belongs 214 to 229 °C; to `CCc1nc(N)ccc1-c1cccc2ccc(C(=O)N(C)C)nc12` (as salt: hydrochloride) [Example 140, 8-(6-amino-2-ethylpyridin-3-yl)-N,N-dimethylquinoline-2-carboxamide], 103 to 113 °C.

With `CCc1nc(N)ccc1-c1ccc(F)c2cccnc12.Cl` [Example 1, 6-ethyl-5-(5-fluoroquinolin-8-yl)pyridin-2-amine], the melting point fell in the range of 120 to 140 °C. Further, in series [1], the IC50 (in general, the concentration that inhibits the measured activity by half) is below 100 nM. `Cl.Nc1ccc(-c2cccc3cccnc23)c(F)n1` [Example 2, 6-Fluoro-5-quinolin-8-yl-pyridin-2-ylamine] registered a melting point above 250 °C. For the same molecule, the IC50 in series [1] was above 1000 nM. Molecule `Cc1nc(N)ccc1-c1cccc2cccnc12.Cl` [Example 3, 6-Methyl-5-quinolin-8-yl-pyridin-2-ylamine] yielded a melting point above 250 °C. The molecule also showed a 50% inhibitory concentration (IC50) in series [1] of 100 to 1000 nM. Taken in the same sequence, the figures for `CCc1nc(N)ccc1-c1csc2ccccc12` [Example 4, 5-Benzo[b]thiophen-3-yl-6-ethyl-pyridin-2-ylamine] were 108 to 120 °C and 100 to 1000 nM. `CCc1nc(N)ccc1-c1csc2cc(OC)ccc12` [Example 5, 6-Ethyl-5-(6-methoxybenzothiophen-3-yl)pyridin-2-amine] displayed a melting point of 151 to 155 °C. In series [1], this molecule registered an IC50 above 1000 nM. The corresponding values for `CCc1nc(N)ccc1-c1cccc2ccncc12.Cl` [Example 6, 6-Ethyl-5-(8-isoquinolyl)pyridin-2-amine] are above 250 °C and below 100 nM.

On to `CCCc1nc(N)ccc1-c1csc2ccccc12.Cl` [Example 7, 5-Benzo[b]thiophen-3-yl-6-propyl-pyridin-2-ylamine], for which the melting point lay in the range of 175 to 190 °C. This molecule also showed an IC50 in series [1] of 100 to 1000 nM. Taken in the same sequence, the figures for `CCCc1nc(N)ccc1-c1cccc2cccnc12.Cl` [Example 8, 6-Propyl-5-(8-quinolyl)pyridin-2-amine] were 80 to 120 °C and below 100 nM. `CCCc1nc(N)ccc1-c1cccc2ccncc12.Cl` [Example 9, 5-(8-Isoquinolyl)-6-propyl-pyridin-2-amine] displayed a melting point of 100 to 117 °C. For the same molecule, the IC50 in series [1] is below 100 nM.

In the case of `CC(C)c1nc(N)ccc1-c1csc2ccccc12.Cl` [Example 10, 5-Benzo[b]thiophen-3-yl-6-isopropyl-pyridin-2-ylamine], the melting point was above 250 °C. In series [1], this molecule came in with a half-inhibitory concentration (IC50) of 100 to 1000 nM. The corresponding values for `CC(C)c1nc(N)ccc1-c1cccc2cccnc12.Cl` [Example 11, 6-Isopropyl-5-(8-quinolyl)pyridin-2-amine] are above 250 °C and below 100 nM.

With `CC(C)c1nc(N)ccc1-c1cccc2ccncc12.Cl` [Example 12, 6-Isopropyl-5-(8-isoquinolyl)pyridin-2-amine], the melting point was above 250 °C. In series [1], this molecule yielded an IC50 of 100 to 1000 nM. With `Cl.Nc1ccc(-c2csc3ccccc23)c(C2CC2)n1` [Example 13, 5-Benzo[b]thiophen-3-yl-6-cyclopropyl-pyridin-2-ylamine], the melting point was in the range of 210 to 220 °C. This molecule registered an IC50 in series [1] of 100 to 1000 nM. The corresponding values for `Cl.Nc1ccc(-c2cccc3cccnc23)c(C2CC2)n1` [Example 14, 6-Cyclopropyl-5-(8-quinolyl)pyridin-2-amine] are above 250 °C and 100 to 1000 nM. Molecule `Nc1ccc(-c2cccc3cccnc23)c(N)n1` [Example 31, 3-(8-quinolyl)pyridine-2,6-diamine] yielded an IC50 in series [1] below 100 nM.

In series [1], `Nc1ccc(-c2c(F)cc(F)c3cccnc23)c(N)n1` [Example 59, 3-(5,7-difluoroquinolin-8-yl)pyridine-2,6-diamine] registered a half-inhibitory concentration (IC50) below 100 nM. Take `Nc1ccc(-c2c(F)ccc3cc(Cl)cnc23)c(N)n1` [Example 60, 3-(3-chloro-7-fluoroquinolin-8-yl)pyridine-2,6-diamine]: the IC50 in series [1] is below 100 nM. Still for that read-out and setting: then `Nc1ccc(-c2c(Cl)ccc3ccc(O)nc23)c(N)n1` [Example 63, 8-(2,6-diaminopyridin-3-yl)-7-chloroquinolin-2-ol], with below 100 nM; and `CCc1nc(N)ccc1-c1cccc2sccc12` [Example 78, 5-(benzo[b]thiophen-4-yl)-6-ethylpyridin-2-amine], with 100 to 1000 nM.

Regarding `CCc1nc(N)ccc1-c1cccc2ccoc12` [Example 79, 5-(benzofuran-7-yl)-6-ethylpyridin-2-amine], the concentration for half-maximal inhibition (IC50) in series [1] is 100 to 1000 nM.

`CCc1nc(N)ccc1-c1c(Cl)ccc2cccnc12` [Example 110, 5-(7-chloroquinolin-8-yl)-6-ethylpyridin-2-amine] gave a 50% inhibitory concentration (IC50) in series [1] below 100 nM. Molecule `CCc1nc(N)ccc1-c1cccc2ccc(-c3ccccc3)nc12` [Example 116, 6-ethyl-5-(2-phenylquinolin-8-yl)pyridin-2-amine] returned an IC50 in series [1] below 100 nM. The same measure, in the same setting: then `CCc1nc(N)ccc1-c1cccc2ccc(-c3cccnc3)nc12` [Example 117, 6-ethyl-5-(2-(pyridin-3-yl)quinolin-8-yl)pyridin-2-amine], with below 100 nM; and `CCc1nc(N)ccc1-c1cccc2ccc(-c3cncnc3)nc12` [Example 124, 6-ethyl-5-(2-(pyrimidin-5-yl)quinolin-8-yl)pyridin-2-amine], with below 100 nM; and `CCc1nc(N)ccc1-c1cccc2ccc(OCCN3CCOCC3)nc12` [Example 130, 6-ethyl-5-(2-(2-morpholinoethoxy)quinolin-8-yl)pyridin-2-amine], with 100 to 1000 nM. For the molecule `CCc1nc(N)ccc1-c1cccc2ccc(C(=O)N(C)C)nc12` [Example 140, 8-(6-amino-2-ethylpyridin-3-yl)-N,N-dimethylquinoline-2-carboxamide], in series [1], the 50% inhibitory concentration (IC50) was 100 to 1000 nM. On to `CCc1nc(N)ccc1-c1c(Cl)ccc2cc(F)cnc12` [Example 144, 5-(7-chloro-3-fluoroquinolin-8-yl)-6-ethylpyridin-2-amine], for which, in series [1], the IC50 is below 100 nM.

Consider `CCc1nc(N)ccc1-c1c(F)ccc2cc(Cl)cnc12` [Example 146, 5-(3-chloro-7-fluoroquinolin-8-yl)-6-ethylpyridin-2-amine], for which the IC50 in series [1] was below 100 nM. Still for that read-out and setting: to `CCc1nc(N)ccc1-c1c(Cl)ccc2cc(Cl)cnc12` [Example 147, 5-(3,7-dichloroquinolin-8-yl)-6-ethylpyridin-2-amine] belongs below 100 nM. Same read-out and setting: then `CCc1nc(N)ccc1-c1c(F)cc(F)c2cc(Cl)cnc12` [Example 148, 5-(3-chloro-5,7-difluoroquinolin-8-yl)-6-ethylpyridin-2-amine], with below 100 nM; and `CCc1nc(N)ccc1-c1c(F)c(F)cc2cc(Cl)cnc12` [Example 149, 5-(3-chloro-6,7-difluoroquinolin-8-yl)-6-ethylpyridin-2-amine], with below 100 nM; and `CCc1nc(N)ccc1-c1c(F)ccc2cc(Br)cnc12` [Example 151, 5-(3-bromo-7-fluoroquinolin-8-yl)-6-ethylpyridin-2-amine], with below 100 nM. The same measure, in the same setting: to `CCc1nc(N)ccc1-c1c(C#N)ccc2cccnc12` [Example 153, 8-(6-amino-2-ethylpyridin-3-yl)quinoline-7-carbonitrile] belongs 100 to 1000 nM; to `CCc1nc(N)ccc1-c1cccc2c1N(C)C(=O)CC2` [Example 157, 8-(6-amino-2-ethylpyridin-3-yl)-1-methyl-3,4-dihydroquinolin-2(1H)-one], above 1000 nM. `CCc1nc(N)ccc1-c1c(Cl)ccc2ccc(O)nc12` [Example 160, 8-(6-amino-2-ethylpyridin-3-yl)-7-chloroquinolin-2(1H)-one]: in series [1], the IC50 was below 100 nM.

Regarding `CCc1nc(N)ccc1-c1cccc2ccc(C(=O)NC3COC3)nc12` [Example 175, 8-(6-amino-2-ethylpyridin-3-yl)-N-(oxetan-3-yl)quinoline-2-carboxamide], the melting point is 156 to 162 °C.
